[C(1O2)] = modified PNA monomer acting as cytosine, C(pOq) type, 1O2; [A(5)] = modified PNA monomer acting as adenine, A(p) type, p=5; [G(5)] = modified PNA monomer acting as guanine, G(p) type, p=5; {Fethoc} = N-terminal Fethoc cap; {NH2} = C-terminal amide
Columns and labels:
[1] = tested on: sodium ion current in rat DRG cells; test: CoroNa assay of sodium current in rat L5 DRG neuronal cells; format: cell-based; settings: rat L5 DRG cells without L5/L6 ligation, 30 hrs
Procedure: “SCN-ASO 27” was evaluated for its ability to inhibit the sodium ion current in rat DRG (dorsal root ganglion) cells using “CoroNa Green” as follows.
[SNL Surgery by L5/L6 Ligation] In Day 0, 6 weeks old male SD rats were anesthetized with zoletil/rompun. Then the L5 and L6 spinal nerve (left side) were exposed and tightly ligated. The muscle and skin were closed and clipped by due aseptic procedures. The rats were sporadically sensitized by von Frey scoring over a period of 4 weeks.
[Preparation of DRG Neuronal Cells] In Day 31, a rat showing a low von Frey score was sacrificed to extract both the left (ligated side) and the right (non-ligated side) DRG. […]
[ASO Treatment & CoroNa Assay] […] The culture dish was mounted on a fluorescence microscope equipped with a CCD camera to continuously capture the green fluorescent images of the cells. The cells were acutely treated with 10 mM NaCl, and then the changes in the cellular fluorescent intensity were digitally recorded over a period of 300 sec. […] The fluorescence intensities from each individual cell were traced at a resolution of a second. The traces of the intracellular fluorescence intensities from individual cells were averaged using ImageJ program (version 1.50i, NIH), and the average traces are provided in FIGS. 33A and 33B for the cells with “L5/L6 ligation” and without “L5/L6 ligation”, respectively. […]

full-length dystrophin = test: IHC of skeletal muscles against full-length dystrophin in mdx mice; format: in vivo
Excerpt: [IHC Evaluation of Skeletal Muscles against Full-length Dystrophin] In Weeks 7, 13 and 21, two animals per group were randomly selected and sacrificed to extract muscle tissues. In Week 30, 3 animals were sacrificed per group.
The muscle tissues sampled in Week 7 were subjected to IHC against the full-length dystrophin by cryosection. The muscle tissues sampled in Weeks 13, 21 and 30 were immunostained by paraffin block. IHC by paraffin block yielded images of better quality than IHC by cryosection.
Muscle samples were subjected to immunostaining in series with a primary antibody targeting the C-terminal of mouse dystrophin (Cat. Number sc-816, Santa Cruz) at 1:100 dilution, with a secondary anti-IgG antibody (Cat Number BA-1100, Vector) at 1:200 dilution, and then with Dylight 594-streptavidin (Cat Number SA-5594, Vector, CA, USA) at 1:200 dilution for red fluorescence tagging. The IHC images were captured on a Zeiss slide scanner (in Weeks 13, 21 and 30) or an Olympus fluorescence microscope (in Week 7). […]
The dystrophin IHC images were subjected to quantification for the full-length dystrophin expression by digitally scoring the intensity of red fluorescence in each individual IHC image using the “ImageJ” program (NIH). Individual fluorescence scores were combined by group and muscle type for statistical evaluation against the wild type negative control group.

mdx mice = test: Rotarod test in mdx mice; format: in vivo, mouse; settings: 100 pmole/Kg subcutaneous 3× per week
Procedure: Given with the exon skipping potential, “DMD-ASO 1” was evaluated in mdx mice for its ability to improve muscle function by rotarod test as described below.
[Grouping] 6 weeks old male mdx mice were trained for rotarod test over a period of 2 weeks, and then randomly assigned into 3 groups of 0 (negative control), 100 and 1,000 pmole/Kg “DMD-ASO 1” based on individual scores by rotarod test in Day 0, i.e., the day of grouping. (N=10 per group)
[ASO Treatment] The injection solutions were prepared by serially diluting the ASO to 20 nM and 200 nM in PBS. Animals were subcutaneously administered with vehicle (PBS, negative control), 20 nM “DMD-ASO 1” (100 pmole/Kg), or 200 nM “DMD-ASO 1” (1,000 pmole/Kg) at 5 mL/Kg, 3× per week over a period of Day 0 to Day 21.
[Rotarod Test and Statistical Analysis] Mice were subjected to rotarod test on a rotarod apparatus (Model #47650, Ugo Basile) with an acceleration schedule of 4 rpm to 45 rpm over 60 seconds. The latency to fall (i.e., the duration that animal remained on the rotarod) was scored for each individual animal. Statistical significance was evaluated by student's t-test against the negative control group.

| Substance | decrease in fluorescence intensity (CoroNa) ([1]; 1 aM) | decrease in fluorescence intensity (CoroNa) ([1]; 100 zM) | in vivo potency relative to the PMO ASO eteplirsen (30 mg/Kg per week) (full-length dystrophin; 200 pmole/Kg corresponds to ca 1 μg/Kg, different species and exon) | full-length dystrophin expression relative to the WT negative control group (IHC) (full-length dystrophin; mdx mice, 200 pmole/Kg 2× per week, Week 30) | muscle function by rotarod test (mdx mice) |
| --- | --- | --- | --- | --- | --- |
| Fethoc-AA(5)G-TG(5)T-A(5)CC(1O2)-TA(5)A-A(5)C-NH2 (AAGTGTACCTAAAC; splice-switching; all peptide nucleic acid (PNA), [A(5)] at 2, 7, 11, 13, [G(5)] at 5, [C(1O2)] at 9, 5' {Fethoc}, 3' {NH2}; peptide nucleic acid written N to C) [SCN-ASO 27] | ~50% | no decrease |  |  |  |
| Fethoc-A(5)GA-G(6)CC(1O2)-TCA-A(5)AA(5)-T-NH2 (antisense AGAGCCTCAAAAT; Fethoc N-cap, C-terminal amide, chemistry not fully specified) [DMD-ASO 1] |  |  | ~30,000 times | > 80% | showed a strong propensity of improvement, but was not significant |

— patent US12624068B2, “Exon skipping by peptide nucleic acid derivatives” (OliPass Corporation, priority 2016, dated 2026)
